In patent publication US20110039879A1, “METHODS FOR INCREASING WHITE BLOOD CELLS” (FibroGen ,Inc., priority 2007, published 2011):

Legend:
Type in all cases: in vivo, Swiss-Webster mice
[1] = tested on: neutrophils; assay: Neutrophils by complete blood count on day 8, dosing day 1, 3, 5; conditions: mice, oral gavage, measured on day 8
[2] = tested on: total white blood cell (WBC); assay: Total white blood cells by complete blood count on day 8, dosing day 1, 3, 5; conditions: Mus musculus, 192 h, mice, oral gavage, measured on day 8, read-out: Total WBC % Increase Over Control; for change in vivo at 200 mg/kg: 200 mg/kg on day 1, day 3 and day 5
How it was run: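 Male Swiss-Webster mice received test compound by oral gavage with a ball-tipped gavage needle on day 1, day 3 and day 5. On day 8, 200 μl of blood was collected and total white blood cell levels were determined by complete blood count on a CellDyn cell analyzer (Abbott Laboratories), expressed as percent change relative to control.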

[3] = tested on: monocytes; assay: Monocytes by complete blood count on day 8, dosing day 1, 3, 5; conditions: mice, oral gavage, measured on day 8
[4] = tested on: lymphocytes; assay: Lymphocytes by complete blood count on day 8, dosing day 1, 3, 5; conditions: mice, oral gavage, measured on day 8
How it was run: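 Male Swiss-Webster mice received the compounds by oral gavage through a ball-tipped gavage needle on days 1, 3 and 5. On day 8, 200 μl blood samples were drawn and lymphocyte counts were obtained by complete blood count on a CellDyn cell analyzer (Abbott Laboratories). The change was expressed as percent increase relative to control animals.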

[5] = tested on: total white blood cell (WBC); assay: Total white blood cells by complete blood count on day 8, dosing day 1, 3, 5; conditions: mice, oral gavage, measured on day 8
[6] = tested on: neutrophils; assay: Neutrophils by complete blood count on day 8, dosing day 1, 3, 5; conditions: Mus musculus, Neutrophil, 192 h, mice, oral gavage, measured on day 8, read-out: Neutrophils % Increase Over Control; for change in vivo at 200 mg/kg: 200 mg/kg on day 1, day 3 and day 5
Description: To examine the effect of compounds and methods of the present invention on increasing white blood cells, the following studies were performed. In one series of experiments, male Swiss-Webster mice were administered various compounds of the present invention via oral gavage using a ball-tipped gavage needle. […] Animals were dosed once daily for 3 or 4 days. Six hours after the final dosing, 200 μl blood samples were collected and total white blood cell, neutrophil, and lymphocyte levels were measured by complete blood count (CBC) using a CellDyn cell analyzer (Abbott Laboratories).
In another series of experiments, male Swiss-Webster mice were administered various compounds (see Table 7 and Table 8) of the present invention via oral gavage using a ball-tipped gavage needle. […] Total WBC, neutrophil, lymphocyte, and monocyte levels were measured in mice as described above on day 8 following administration of compound on day 1, day 3, and day 5.

[7] = 100 mg/kg on day 1, day 3 and day 5
[8] = 200 mg/kg on day 1, day 3 and day 5
[9] = Mus musculus, Monocyte, 192 h, 200 mg/kg on day 1, day 3 and day 5, read-out: Monocytes % Increase Over Control
[10] = Mus musculus, Lymphocyte, 192 h, 200 mg/kg on day 1, day 3 and day 5, read-out: Lymphocytes % Increase Over Control

Structure (SMILES) | Neutrophils [1, 7] | change in vivo at 100 mg/kg [2, 7] [%] | change in vivo at 100 mg/kg ([3]; Mus musculus, Monocyte, 192 h, 100 mg/kg on day 1, day 3 and day 5, read-out: Monocytes % Increase Over Control) [%] | Monocytes [3, 7] | change in vivo at 100 mg/kg ([4]; Mus musculus, Lymphocyte, 192 h, 100 mg/kg on day 1, day 3 and day 5, read-out: Lymphocytes % Increase Over Control) [%] | Lymphocytes [4, 7] | Total WBC [5, 7] | change in vivo at 100 mg/kg [6, 7] [%] | Neutrophils [1, 8] | change in vivo at 200 mg/kg [2] [%] | change in vivo at 200 mg/kg [3, 9] [%] | Monocytes [3, 8] | change in vivo at 200 mg/kg [4, 10] [%] | Lymphocytes [4, 8] | Total WBC [5, 8] | change in vivo at 200 mg/kg [6] [%]
Cc1ccc(Oc2cccc3c(C#N)nc(C(=O)NCC(=O)O)c(O)c23)cc1 [Compound BA, [(1-Cyano-4-hydroxy-5-p-tolyloxy-isoquinoline-3-carbonyl)-amino]-acetic acid] | 0.7 10^3 cells/μl | 434 | 20 | 0.2 10^3 cells/μl | 514 | 23.8 10^3 cells/μl | 24.7 10^3 cells/μl | 38 |  |  |  |  |  |  |  | 
N#Cc1nc(C(=O)NCC(=O)O)c(O)c2c(Cl)c(Cl)n(Cc3ccccc3)c12 [Compound Q, [(1-Benzyl-2,3-dichloro-7-cyano-4-hydroxy-1H-pyrrolo[2,3-c]pyridine-5-carbonyl)-amino]-acetic acid] |  |  |  |  |  |  |  |  | 2.5 10^3 cells/μl | 475 | 14 | 0.1 10^3 cells/μl | 522 | 36.0 10^3 cells/μl | 38.7 10^3 cells/μl | 233
O=C(O)CNC(=O)c1c(O)c2cccn2n(Cc2ccc(C(F)(F)F)cc2)c1=O [Compound BG, {[4-Hydroxy-2-oxo-1-(4-trifluoromethyl-benzyl)-1,2-dihydro-pyrrolo[1,2-b]pyridazine-3-carbonyl]-amino}-acetic acid] |  |  |  |  |  |  |  |  | 1.0 10^3 cells/μl | 252 | 60 | 0.2 10^3 cells/μl | 296 | 24.4 10^3 cells/μl | 26.2 10^3 cells/μl | 22
COc1ccc(Oc2cccc3c(C#N)nc(C(=O)NCC(=O)O)c(O)c23)cc1 [Compound N, {[1-Cyano-4-hydroxy-5-(4-methoxy-phenoxy)-isoquinoline-3-carbonyl]-amino}-acetic acid] |  |  |  |  |  |  |  |  | 0.9 10^3 cells/μl | 125 | 157 | 0.2 10^3 cells/μl | 138 | 10.7 10^3 cells/μl | 12.0 10^3 cells/μl | 60
